Consider two compounds from US6632806B1, “Neurologically-active compounds” (The University of Sydney, priority 1997, dated 2003).

Experiment [1] has as its target T1, GABAA.
T1 construct: Activity at GABAA; other: Woodward et al, 1993; GABAA Kb; other: Ragozzino et al (1996); other: PMPA; source not given, column fo
Description: Inhibition of [3H]muscimol binding using rat cortical membranes. The following applies: PMPA; source not given, column footnote is [3H]muscimol binding; read-out: GABAA receptor affinity, IC50.

Experiment [2] has as its target T2, GABAB (Rattus norvegicus, UniProt Q9Z0U4). The experiment can be described thus: Frequency of spontaneous discharges in neocortical slices, grease-gap recording. The arrangement: from tissue; host or cells: rat cortical membranes / neocortical slices; values largely from the literature. To be noted: read-out: GABAB receptor affinity.
Target sequence in this assay (Q9Z0U4 17-960 limits assumed): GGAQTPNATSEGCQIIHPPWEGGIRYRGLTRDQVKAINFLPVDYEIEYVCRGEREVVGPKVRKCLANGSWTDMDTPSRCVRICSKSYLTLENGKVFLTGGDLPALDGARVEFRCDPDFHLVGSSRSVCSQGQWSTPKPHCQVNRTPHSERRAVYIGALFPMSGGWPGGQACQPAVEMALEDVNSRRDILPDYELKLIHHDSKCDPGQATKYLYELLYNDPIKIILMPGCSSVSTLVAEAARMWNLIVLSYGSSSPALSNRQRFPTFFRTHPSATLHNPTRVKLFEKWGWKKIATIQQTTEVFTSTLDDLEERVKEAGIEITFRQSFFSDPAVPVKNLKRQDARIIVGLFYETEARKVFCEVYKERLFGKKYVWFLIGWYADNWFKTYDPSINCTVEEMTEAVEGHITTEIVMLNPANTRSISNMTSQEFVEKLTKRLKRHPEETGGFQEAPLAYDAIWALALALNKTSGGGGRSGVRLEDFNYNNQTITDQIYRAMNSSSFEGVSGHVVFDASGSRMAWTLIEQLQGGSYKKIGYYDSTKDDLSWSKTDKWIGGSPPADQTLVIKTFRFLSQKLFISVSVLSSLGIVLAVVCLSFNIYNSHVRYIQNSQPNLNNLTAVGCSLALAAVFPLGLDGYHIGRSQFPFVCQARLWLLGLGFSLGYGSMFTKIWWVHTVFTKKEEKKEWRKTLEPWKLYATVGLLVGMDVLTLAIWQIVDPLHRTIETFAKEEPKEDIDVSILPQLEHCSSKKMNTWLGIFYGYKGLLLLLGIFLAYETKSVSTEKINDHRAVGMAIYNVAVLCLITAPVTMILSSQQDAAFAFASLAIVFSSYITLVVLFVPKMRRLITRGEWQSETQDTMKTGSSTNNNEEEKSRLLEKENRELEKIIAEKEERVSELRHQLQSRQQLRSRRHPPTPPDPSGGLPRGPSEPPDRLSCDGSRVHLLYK
Target sequence in this assay (O88871 41-940 partner): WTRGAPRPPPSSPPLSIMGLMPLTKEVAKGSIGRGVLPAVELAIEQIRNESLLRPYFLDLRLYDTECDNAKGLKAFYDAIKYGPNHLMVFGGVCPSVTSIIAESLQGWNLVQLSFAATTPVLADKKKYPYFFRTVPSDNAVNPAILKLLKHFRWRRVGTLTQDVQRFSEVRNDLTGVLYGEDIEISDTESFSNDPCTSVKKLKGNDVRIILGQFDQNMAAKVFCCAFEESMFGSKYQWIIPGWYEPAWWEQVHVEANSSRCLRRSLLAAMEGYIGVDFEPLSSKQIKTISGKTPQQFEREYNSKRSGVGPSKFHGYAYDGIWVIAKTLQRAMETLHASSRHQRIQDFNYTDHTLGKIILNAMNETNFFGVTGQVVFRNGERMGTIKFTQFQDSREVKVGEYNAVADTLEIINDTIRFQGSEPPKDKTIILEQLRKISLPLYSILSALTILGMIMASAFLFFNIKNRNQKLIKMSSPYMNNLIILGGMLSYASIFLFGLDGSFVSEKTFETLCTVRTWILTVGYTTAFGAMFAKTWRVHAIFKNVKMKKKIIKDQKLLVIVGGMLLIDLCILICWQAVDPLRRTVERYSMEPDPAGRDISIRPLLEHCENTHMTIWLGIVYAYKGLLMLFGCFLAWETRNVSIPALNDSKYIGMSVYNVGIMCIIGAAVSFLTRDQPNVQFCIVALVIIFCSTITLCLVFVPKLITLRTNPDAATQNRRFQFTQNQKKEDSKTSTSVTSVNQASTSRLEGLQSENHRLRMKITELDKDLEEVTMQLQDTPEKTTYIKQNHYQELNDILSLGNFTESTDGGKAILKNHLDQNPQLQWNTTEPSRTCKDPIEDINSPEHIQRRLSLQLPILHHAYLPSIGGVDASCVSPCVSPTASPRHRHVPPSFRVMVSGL
In another experiment the target is human rho-2 receptors (Homo sapiens, UniProt P28476). The experiment can be described thus: Antagonist KB at human homo-oligomeric rho-2 GABAC receptors. Format: cell-based. To be noted: for Kb: human rho-2.
Chain of human rho-2 receptors (P28476 21-465): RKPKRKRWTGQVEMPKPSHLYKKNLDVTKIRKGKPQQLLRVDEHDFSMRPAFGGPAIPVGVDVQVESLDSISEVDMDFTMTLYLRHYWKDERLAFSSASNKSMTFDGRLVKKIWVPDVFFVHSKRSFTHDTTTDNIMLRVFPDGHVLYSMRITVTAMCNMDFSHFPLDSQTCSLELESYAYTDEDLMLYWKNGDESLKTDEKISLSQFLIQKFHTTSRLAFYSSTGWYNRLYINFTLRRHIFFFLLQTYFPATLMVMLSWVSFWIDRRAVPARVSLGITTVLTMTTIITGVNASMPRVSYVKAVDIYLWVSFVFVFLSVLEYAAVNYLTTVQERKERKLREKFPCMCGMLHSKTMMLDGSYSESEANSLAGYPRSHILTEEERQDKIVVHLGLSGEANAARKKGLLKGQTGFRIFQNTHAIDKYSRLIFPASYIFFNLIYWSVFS
Experiment [3] deals with human r1 receptors (GABAC receptors) (Homo sapiens, UniProt P24046). Description: Two-electrode voltage clamp recording of human r1 GABAC receptors expressed in Xenopus oocytes. For orientation: Two-electrode voltage clamp holds a large cell at a set potential and records current.
Chain of human r1 receptors (GABAC receptors) (P24046 22-479): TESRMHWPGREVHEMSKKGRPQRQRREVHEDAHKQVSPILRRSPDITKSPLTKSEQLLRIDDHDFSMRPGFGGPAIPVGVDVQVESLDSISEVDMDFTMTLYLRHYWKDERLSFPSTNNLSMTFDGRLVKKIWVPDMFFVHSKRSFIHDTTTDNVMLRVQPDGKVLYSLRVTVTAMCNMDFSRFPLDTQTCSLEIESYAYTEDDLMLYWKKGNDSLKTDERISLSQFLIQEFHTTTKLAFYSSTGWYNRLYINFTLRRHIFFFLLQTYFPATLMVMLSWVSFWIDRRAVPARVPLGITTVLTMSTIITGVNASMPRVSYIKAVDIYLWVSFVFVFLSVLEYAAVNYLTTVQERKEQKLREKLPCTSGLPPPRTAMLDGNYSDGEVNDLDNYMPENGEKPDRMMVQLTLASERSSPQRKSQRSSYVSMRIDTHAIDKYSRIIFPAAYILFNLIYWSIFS
Description: The plasmid was linearized with XbaI and cRNA made using the “Message Machine” kit from Ambion Inc. (Austin, Tex., USA). 50 ng of cRNA was injected into defolliculated Stage V Xenopus oocytes. Two to seven days later, receptor activity was measured by two-electrode voltage clamp recording, using a Geneclamp 500 amplifier (Axon Instruments Inc., Foster City, Calif., USA) and a MacLab 2e recorder (ADInstruments, Sydney, NSW, Australia). […] For receptor activation measurements, the indicated concentrations of agonist and antagonist were added to ND96.
A further experiment deals with T3, GABAC (human r1) (Homo sapiens, UniProt P24046).
T3 construct: host or cells: Xenopus oocytes expressing human r1 mRNA
T3 sequence (P24046 22-479): as above
The following applies: cited from earlier work.

In another experiment the test system is male Swiss mice. Description: Elevated plus-maze memory test. The class given is in vivo. The protocol: In this assay mice are trained by placing them at the end of the open arm of the plus maze and allowing them to find the shelter of the closed arms. The time taken is measured as the ‘latency’. Immediately after the trial the mice are injected with the test drug or with a saline control. […]

Experiment [4] deals with T1, GABAA. To be noted: Ragozzino et al (1996); cited from earlier work.
For experiment [5], the target named is T2, GABAB. Set-up: from tissue; host or cells: hippocampal slices (pyramidal neurons). To be noted: bicuculline 20 μM; Ragozzino et al (1996); cited from earlier work.
Target sequence in this assay (Q9Z0U4 20-960): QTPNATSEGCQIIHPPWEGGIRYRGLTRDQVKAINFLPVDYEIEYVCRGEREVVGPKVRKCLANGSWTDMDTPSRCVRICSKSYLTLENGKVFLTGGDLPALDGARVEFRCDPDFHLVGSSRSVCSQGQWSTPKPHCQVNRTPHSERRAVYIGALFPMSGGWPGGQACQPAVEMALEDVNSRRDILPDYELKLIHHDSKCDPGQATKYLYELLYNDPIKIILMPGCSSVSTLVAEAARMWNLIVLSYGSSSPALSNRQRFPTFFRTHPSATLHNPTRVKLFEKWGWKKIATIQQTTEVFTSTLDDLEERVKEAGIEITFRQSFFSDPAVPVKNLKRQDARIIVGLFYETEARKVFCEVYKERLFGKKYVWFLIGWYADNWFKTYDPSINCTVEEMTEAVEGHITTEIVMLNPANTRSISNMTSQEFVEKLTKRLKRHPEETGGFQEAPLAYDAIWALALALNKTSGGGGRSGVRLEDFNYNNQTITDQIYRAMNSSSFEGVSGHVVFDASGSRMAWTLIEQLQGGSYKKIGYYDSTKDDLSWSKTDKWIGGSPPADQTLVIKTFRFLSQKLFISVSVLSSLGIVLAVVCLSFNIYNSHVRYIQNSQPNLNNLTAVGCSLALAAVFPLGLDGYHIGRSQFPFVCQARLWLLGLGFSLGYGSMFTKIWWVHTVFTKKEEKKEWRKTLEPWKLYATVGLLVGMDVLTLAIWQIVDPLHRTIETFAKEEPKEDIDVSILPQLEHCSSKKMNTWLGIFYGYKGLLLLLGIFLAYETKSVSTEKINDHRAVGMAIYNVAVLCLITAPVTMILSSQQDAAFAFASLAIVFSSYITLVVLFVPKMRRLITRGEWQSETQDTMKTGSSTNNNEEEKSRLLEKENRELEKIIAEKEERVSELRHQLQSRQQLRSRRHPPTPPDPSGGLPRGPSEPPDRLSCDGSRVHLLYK
Target sequence in this assay (O88871 41-940 partner): as the sequence (O88871 41-940 partner) above
In another experiment the test system is chicks. The experiment can be described thus: Memory consolidation in chicks, anthranilate-coated bead discrimination. Format: in vivo, chick. The protocol:
This procedure trains each chick on anthranilate-coated red beads, which have a bitter taste. In the test, 120 min. after the initial exposure to the red bead each chick is presented with a blue and a red bead, and normally will avoid pecking at the red bead; the discrimination ratio measures how well it remembers to do this. Chicks trained on 100% anthranilate-coated beads produce a discrimination ratio better than 0.9, and drug-induced memory deficits can be detected in this group. However, chicks trained on 20% anthranilate-coated beads produce a discrimination ratio of around 0.6, and this group can be used to detect drug-induced memory enhancement. Drugs are delivered by two bilateral intracranial injections (10 μL each).

Where [6] appears, read: Murata et al, 1996, Ragozzino et al.

For the compound `CP(=O)(O)C1CCNCC1` [PMPA, piperidine-4-(methyl)phosphinic acid], the IC50 was > 100 µM on GABAA [1]; > 1000 µM on GABAB [2]; 6 µM in experiment [3] (IC50 (concentration that inhibits 50% of the response produced by 1 μM GABA), 1 μM GABA). Besides, the Kb is 4.2 ± 0.2 µM on human rho-2 receptors and 6 ± 1.2 µM in [3].

With `CP(=O)(O)C1=CCNCC1` [TPMPA], the Kd (as a rule, the constant that tells how readily two partners part at equilibrium) on GABAC (human r1) (Murata et al, 1996, Ragozzino et al, 1996, read-out: KD, GABAC receptor antagonist activity) was 2.1 µM. The “Selectivity as antagonist for GABAC receptors over GABAB receptors” value on GABAC (human r1) (setting [6]) is reported as “more than 100 fold”. In addition, the “Selectivity at GABAC receptors over GABAA receptors” value at GABAC (human r1) (setting [6]) is listed as 500 fold. Moreover, the Kb on GABAC (human r1) (data from Murata et al, 1996) was 2.1 µM; in the experiment on GABAA [4], 320 µM; at human rho-2 receptors, 15.6 ± 1.6 µM; in experiment [3], 2 ± 0.4 µM. Moreover, the IC50 on GABAC (human r1) (read-out: Concentration producing 50% inhibition of GABAC receptor activation) is 2.1 µM. Moreover, the Effect on latency entry in the experiment with male Swiss mice (50 mg/Kg, repeat experiment, tested only after 14 days, Swiss mice from a different source) was “significantly reduced latency”; in the experiment with male Swiss mice (200 mg/Kg, first experiment, 14 day test), “significantly reduces the latency”. For the same compound, the “Potency at blocking rho-2 receptors relative to rho-1 GABAC receptors” value at human rho-2 receptors (human homo-oligomeric receptors) is given as “an order of magnitude less potent”. Also, the EC50 (as a rule, the concentration at which the effect is half-maximal) at GABAB [5] is ~500 µM. The “Effect on memory (discrimination ratio)” value with chicks (30 μM, intracranial injection, chicks trained with 20% anthranilate) is given as “enhances memory”. Moreover, the “Time of injection after training giving optimum effect” value in the experiment with chicks (in vivo) is ≤ 2.5 min.
